Bounds are passed on as bounds.

Assay [1] relates to Leptinotarsa decemlineata. Kind of assay: Antifeedant activity against Leptinotarsa decemlineata assessed as inhibition of feeding at 50 ug/cm2 by no-choice feeding assay relative to untreated control. It is filed as functional.
Assay [2] has as its system Myzus persicae. Kind of assay: Potency index, ratio of antifeedant activity of farnesol to compound against Myzus persicae (green peach aphid) assessed feeding settling inhibition index at 50 ug/cm2. It is filed as functional.
In assay [3] the test system is Spodoptera littoralis. Kind of assay: Nutritional effect in Spodoptera littoralis L6 larvae assessed as weight gain at 20 ug/insect administered through oral cannulation after 72 hr relative to untreated control. It is filed as functional.
For assay [4], the system named is Leptinotarsa decemlineata. Kind of assay: Antifeedant activity against Leptinotarsa decemlineata assessed as inhibition of feeding by no-choice feeding assay relative to untreated control. It is filed as functional, organism-based.
Assay [5] concerns Leptinotarsa decemlineata. Kind of assay: Antifeedant activity against Leptinotarsa decemlineata assessed as inhibition of feeding at 50 ug/cm2 by choice feeding assay relative to untreated control. The assay is classed as functional.
Assay [6] relates to Leptinotarsa decemlineata. Kind of assay: Antifeedant activity against Leptinotarsa decemlineata assessed as inhibition of feeding by choice feeding assay relative to untreated control. It is filed as functional, organism-based.
Assay [7] relates to Leptinotarsa decemlineata. Kind of assay: Toxicity against Leptinotarsa decemlineata assessed as insect mortality administered through hemolymph injection after 72 hr. The assay is classed as functional. On the set-up: concentration or dose not given beside the values.
Assay [8] relates to Spodoptera littoralis. Kind of assay: Antifeedant activity against Spodoptera littoralis assessed as inhibition of feeding at 50 ug/cm2 by choice feeding assay relative to untreated control. It is filed as functional.
Assay [9] deals with Myzus persicae. Kind of assay: Antifeedant activity against Myzus persicae (green peach aphid) assessed feeding settling inhibition index at 50 ug/cm2 relative to untreated control. The assay is classed as functional.
For assay [10], the system named is Spodoptera littoralis. Kind of assay: Nutritional effect in Spodoptera littoralis L6 larvae assessed as food consumption at 20 ug/insect administered through oral cannulation after 72 hr relative to untreated control. The assay is classed as functional.
In assay [11] the test system is Spodoptera littoralis. Kind of assay: Antifeedant activity against Spodoptera littoralis assessed as inhibition of feeding by choice feeding assay relative to untreated control. It is filed as functional, organism-based.

Broadly, the inhibition is the percentage by which the read-out fell short of the control. In general, mortality refers to the percentage killed. Turning to `C=C1CCC[C@@H]2[C@@](C)(C/C=C3/CC(OC(C)=O)OC3OC(C)=O)[C@H](C)CC[C@@]12C` (stereo partly specified), the inhibition at 50 µg/cm2 was determined as 28.8% in assay [1], 33.8% in assay [5], 11.2% in the assay with Spodoptera littoralis [8] and 43.1% in the assay with Myzus persicae [9]. Besides, the “fold change (FC)” value in the assay with Myzus persicae [2] is reported as 2. Moreover, the Activity was found to be 110.18% in the assay with Spodoptera littoralis [3] and 110.26% in the assay with Spodoptera littoralis [10]. The EC50 (in assay [4]; in assay [6]; in the assay on Spodoptera littoralis [11]) was above 50 microg/cm2 in each case. For the same molecule, the mortality in [7] worked out at 25%.

On to `C=C1CCC[C@@H]2[C@@](C)(CC(O)/C(=C/COC(C)=O)COC(C)=O)[C@H](C)CC[C@@]12C` (stereo partly specified), for which the inhibition at 50 µg/cm2 in [1] was found to be 22.6%; in [5], 61.4%; in the assay with Spodoptera littoralis [8] it was 42.5%; in the assay on Myzus persicae [9], 48.2%. For the same molecule, the “fold change (FC)” value in the assay on Myzus persicae [2] is 2. Further, the figures for the Activity in the assay with Spodoptera littoralis [3] and with Spodoptera littoralis [10] were 106.65% and 88.33%, respectively. Besides, the EC50 (in assay [4]; in assay [6]; in the assay on Spodoptera littoralis [11]) was above 50 microg/cm2 each time. The mortality in assay [7] amounted to 26%.

As for `C=C1CCC[C@@H]2[C@@](C)(CC(OC(C)=O)/C(=C/COC(C)=O)COC(C)=O)[C@H](C)CC[C@@]12C` (stereo partly specified), the inhibition at 50 µg/cm2 in assay [1] came to 11.6%; in [5] it was 38.5%; in the assay with Spodoptera littoralis [8], 18.4%; in the assay with Myzus persicae [9], 19.7%. For the same molecule, the Activity with Spodoptera littoralis [3] stood at 104.75%; in the assay with Spodoptera littoralis [10] it was 93.02%. The EC50 (in [4]; in [6]; with Spodoptera littoralis [11]) was above 50 microg/cm2 throughout. Also, in [7], the mortality came out at 32%.

Turning to `CC(=O)OC/C=C(\COC(C)=O)[C@@H](C[C@@]1(C)[C@H](C)CC[C@@]2(C)C(C)=CCC[C@H]12)OC(C)=O`, the inhibition at 50 µg/cm2 in assay [1] came to 35.5%; in [5] it was 31.4%; with Spodoptera littoralis [8], 28.1%; with Myzus persicae [9], 33.5%. Besides, the Activity was found to be 30.69% in the assay with Spodoptera littoralis [3] and 40.02% with Spodoptera littoralis [10]. Besides, the EC50 (in assay [4]; in assay [6]; in the assay on Spodoptera littoralis [11]) was above 50 microg/cm2 each time. In [7], the mortality came to 8%.

Regarding `C[C@@H]1CC[C@@H]2C(C)(C)C[C@]3(C)CC=C[C@]123` [SILPHINENE], the values for the EC50 in assay [4] and in [6] were 2.7 microg/cm2 and 0.27 microg/cm2, respectively. Moreover, in assay [7], the mortality came to 24%.

As for `C=C1CCC[C@@H]2[C@@](C)(C/C=C(\CC=O)C(C)=O)[C@H](C)CC[C@@]12C`, the inhibition at 50 µg/cm2 in assay [1] came to 98.9%; in assay [5] it was 89.9%; with Spodoptera littoralis [8] it was 14.7%; in the assay on Myzus persicae [9] it was 45.6%. Further, in the assay with Myzus persicae [2], the “fold change (FC)” value is 2. The Activity in the assay with Spodoptera littoralis [3] is listed as 104.33%; in the assay with Spodoptera littoralis [10], 92.7%. For the same molecule, the EC50 is on record as 7.7 microg/cm2 in assay [4], 12.8 microg/cm2 in [6] and above 50 microg/cm2 in the assay with Spodoptera littoralis [11]. Moreover, the mortality in assay [7] was found to be 26%.

On to `CC(=O)OC/C=C(\COC(C)=O)C(C[C@@]1(C)[C@H](C)CC[C@]2(C)[C@@H]1CCCC2(O)CO)OC(C)=O` (stereo partly specified), for which the inhibition at 50 µg/cm2 was determined as 86.5% in assay [1], 97.1% in assay [5] and 32.6% in the assay with Spodoptera littoralis [8]. The Activity is 29.72% in the assay with Spodoptera littoralis [3] and 38.19% in the assay with Spodoptera littoralis [10]. Moreover, the mortality in assay [7] worked out at 50%. In addition, in the assay on Spodoptera littoralis [11], the EC50 was above 50 microg/cm2.

For `C=C1CCC[C@@H]2[C@@](C)(C/C=C(/C=O)CC=O)[C@H](C)CC[C@@]12C` [E-ISOLINARIDIAL], the inhibition at 50 µg/cm2 in [1] is 90.7%; in [5], 90.1%; in the assay with Spodoptera littoralis [8] it was 23.3%; in the assay with Myzus persicae [9], 44.3%. Also, the “fold change (FC)” value in the assay on Myzus persicae [2] was determined as 2. Further, the Activity is recorded as 108.22% in the assay on Spodoptera littoralis [3] and 95.56% in the assay on Spodoptera littoralis [10]. The EC50 in [4] is reported as 8.5 microg/cm2; in [6], 10.5 microg/cm2; in the assay on Spodoptera littoralis [11] it was above 50 microg/cm2. The mortality in assay [7] worked out at 0%.

With `CC(=O)OC/C=C(\COC(C)=O)C(C[C@@]1(C)[C@H](C)CC[C@]2(C)[C@@H]1CCCC21CO1)OC(C)=O` (stereo partly specified), the inhibition at 50 µg/cm2 in [1] worked out at 40.7%; in [5] it was 96.6%; in the assay with Spodoptera littoralis [8], 17.9%; in the assay with Myzus persicae [9], 26.3%. In addition, the Activity in the assay on Spodoptera littoralis [3] was 31.03%; in the assay with Spodoptera littoralis [10], 39.74%. Moreover, the EC50 in [4] is above 50 microg/cm2; in [6] it was 6.4 microg/cm2; in the assay with Spodoptera littoralis [11], above 50 microg/cm2. The mortality in [7] turned out to be 50%.

Take `CC(=O)OC1C/C(=C/C[C@@]2(C)[C@H](C)CC[C@]3(C)[C@@H]2CCC[C@@]32CO2)C(OC(C)=O)O1` (stereo partly specified): the inhibition at 50 µg/cm2 in assay [1] is 73.3%; in assay [5], 91.2%; in the assay with Spodoptera littoralis [8] it was 73.9%. The Activity was determined as 26.37% in the assay with Spodoptera littoralis [3] and 55.54% with Spodoptera littoralis [10]. Moreover, the mortality in assay [7] is reported as 42%.

In the assay on Myzus persicae [9], `CC(C)=CCC/C(C)=C/CC/C(C)=C/CO` [FARNESOL] gave an inhibition at 50 µg/cm2 of 90.6%.
